Reference: US9133115B2 (ACHILLION PHARMACEUTICALS, INC., priority 2008, dated 2015)

What follows are compounds tested on HCV replicon (assay: HCV replicon replication assay (NPT ELISA) in Huh-7 replicon-containing cells). Conditions: Hepatitis C virus, 72 h; HCV replicon in Huh-7 cells, three days incubation; read-out: EC50.
Format: cell-based
Description: Compounds claimed herein are tested for the ability to inhibit viral replication of the Hepatitis C replicon in cultured cells in which the HCV replicon construct has been incorporated. The HCV replicon system was described by Bartenschlager, et. al (Science, 285, pp. 110-113 (1999)). The replicon system is predictive of in vivo anti-HCV activity; compounds that are active in humans uniformly evidence activity in the replicon assay.
In this assay HCV replicon containing cells are treated with different concentrations of the test compound to ascertain the ability of the test compound to suppress replication of the HCV replicon. As a positive control, HCV replicon-containing cells are treated with different concentrations of interferon alpha, a known inhibitor of HCV replication. The replicon assay system includes Neomycin Phosphotransferase (NPT) as a component of the replicon itself in order to detect the transcription of replicon gene products in the host cell. Cells in which the HCV replicon is actively replicating have high levels of NPT; the level of NPT is proportional to HCV replication. […] The NPT level of each sample is measured using a captured ELISA.
A protocol for testing compounds for the ability to inhibit viral replication of the Hepatitis C replicon cultured cells in which the replicon construct has been incorporated, follows.
The HCV replicon contains, 5′-3′, the HCV-IRES, the neomycin phosphotransferase (neo) gene, the IRES of encephalomyocarditis virus, which directs translation of HCV sequences NS3 to NS5B, and the 3′-NTR. The sequence of the HCV replicon has been deposited in GenBank (Accession no. AJ242652).
The replicon is transfected into Huh-7 cells using standard methods such as electroporation.
The equipment and materials include, but are not limited to, Huh-7 HCV replicon-containing cells, maintenance media (DMEM (Dulbecco's modified Eagle media) supplemented with 10% FBS, L-glutamine, non-essential amino acids, penicillin (100 units/ml), streptomycin (100 micrograms/ml), and 500 micrograms/ml of Geneticin (G418), screening media (DMEM supplemented with 10% FBS, L-glutamine, non-essential amino acids, penicillin (100 units/ml) and streptomycin (100 micrograms/ml)), 96 well tissue culture plates (flat bottom), 96 well plates (U bottom for drug dilution), Interferon alpha for positive control, fixation reagent (such as methanol: acetone), primary antibody (rabbit anti-NPTII), secondary antibody: Eu-N1 l, and enhancement solution.
HCV replicon-containing cells support high levels of viral RNA replicon replication when their density is suitable. Over-confluency causes decreased viral RNA replication. Therefore, cells must be kept growing in log phase in the presence of 500 micrograms/ml of G418. Generally, cells should be passed twice a week at 1: 4-6 dilution. Cell maintenance is conducted as follows:
HCV replicon-containing cells are examined under a microscope to ensure that cells growing well. Cells are rinsed once with PBS and 2 ml trypsin is added. The cell/trypsin mixture is incubated at 37° C. in a CO2 incubator for 3-5 minutes. After incubation 10 ml of complete media is added to stop the trypsinization reaction. Cells are blown gently, put into a 15 ml tube, and spun at 1200 rpm for 4 minutes. The trypsin/medium solution is removed. Medium (5 ml) is added and the cells are mixed carefully. The cells are counted.
The cells are then seeded onto 96-well plates at a density of 6000-7500 cells/100 microliters/well (6-7.5×10^5 cells/10 ml/plate). The plates are then incubated at 37° C. in a 5% CO2 incubator.
Cells are examined under a microscope approximated 24 hours after seeding and prior to adding drugs. If counting and dilution were performed correctly, cells are 60-70% confluent and nearly all cells should attach and spread evenly in the well.
HCV replicon-containing cells are rinsed with once PBS once; 2 mls of trypsin are then added. Cells are incubated at 37° C. in a 5% CO2 incubator for 3-5 minutes. […]

First: C=C[C@@H]1C[C@]1(NC(=O)[C@@H]1C[C@@H](Oc2cc(-c3ccccc3)nc3cc(OC)ccc23)CN1C(=O)[C@@H](CC(=O)N1CCCCC1)C(C)(C)C)C(=O)NS(=O)(=O)c1ccccc1 [Compound 62, (2S,4R)-1-((S)-2-tert-butyl-4-oxo-4-(piperidin-1-yl)butanoyl)-4-(7-methoxy-2-phenylquinolin-4-yloxy)-N-((1R,2S)-1-(phenylsulfonyl-carbamoyl)-2-vinyl-cyclopropyl)pyr-rolidine-2-carboxamide]
Second: C=C[C@@H]1C[C@]1(NC(=O)[C@@H]1C[C@@H](Oc2cc(-c3ccccc3)nc3cc(OC)ccc23)CN1C(=O)[C@@H](CC(=O)N1CCCCC1)C(C)(C)C)C(=O)NS(=O)(=O)Cc1ccccc1 [Compound 64, (2S,4R)-N-((1R,2S)-1-(benzylsulfonyl-carbamoyl)-2-vinylcyclopropyl)-1-((S)-2-tert-butyl-4-oxo-4-(piperidin-1-yl)butanoyl)-4-(7-methoxy-2-phenylquinolin-4-yloxy)pyrrolidine-2-carboxamide]
The EC50 of the first is lower: under 1000 nM for the first, 1000 to 10000 nM for the second. The first is the more potent here.

C=C[C@@H]1C[C@]1(NC(=O)[C@@H]1C[C@@H](Oc2cc(-c3ccccc3)nc3cc(OC)ccc23)CN1C(=O)[C@@H](CC(=O)N1CCCCC1)C(C)(C)C)C(=O)NS(=O)(=O)C(C)C [Compound 63, (2S,4R)-1-((S)-2-tert-butyl-4-oxo-4-(piperidin-1-yl)butanoyl)-N-((1R,2S)-1-(isopropylsulfonyl-carbamoyl)-2-vinylcyclopropyl)-4-(7-methoxy-2-phenylquinolin-4-yloxy)pyrrolidine-2-carboxamide] and C=C[C@@H]1C[C@]1(NC(=O)[C@@H]1C[C@@H](Oc2cc(-c3ccccc3)nc3cc(OC)ccc23)CN1C(=O)[C@@H](CC(=O)N1CCCCC1)C(C)(C)C)C(=O)NS(C)(=O)=O [Compound 68, (2S,4R)-1-((S)-2-tert-butyl-4-oxo-4-(piperidin-1-yl)butanoyl)-4-(7-methoxy-2-phenylquinolin-4-yloxy)-N-((1R,2S)-1-(methylsulfonyl-carbamoyl)-2-vinyl-cyclopropyl)pyr-rolidine-2-carboxamide] cannot be ordered by EC50: under 1000 nM for the first, under 1000 nM for the second.

C=C[C@@H]1C[C@]1(NC(=O)[C@@H]1C[C@@H](Oc2cc(-c3ccccc3)nc3cc(OC)ccc23)CN1C(=O)[C@@H](CC(=O)N1CCCCC1)C(C)(C)C)C(=O)NS(=O)(=O)C(C)(C)C [Compound 65, (2S,4R)-1-((S)-2-tert-butyl-4-oxo-4-(piperidin-1-yl)butanoyl)-N-((1R,2S)-1-(tert-butylsulfonyl-carbamoyl)-2-vinylcyclopropyl)-4-(7-methoxy-2-phenylquinolin-4-yloxy)pyrrolidine-2-carboxamide] and C=C[C@@H]1C[C@]1(NC(=O)[C@@H]1C[C@@H](Oc2cc(-c3ccccc3)nc3cc(OC)ccc23)CN1C(=O)[C@@H](CC(=O)N1CCCCC1)C(C)(C)C)C(=O)NS(=O)(=O)C(F)(F)F [Compound 66, (2S,4R)-1-((S)-2-tert-butyl-4-oxo-4-(piperidin-1-yl)butanoyl)-4-(7-methoxy-2-phenylquinolin-4-yloxy)-N-((1R,2S)-1-(trifluoromethyl-sulfonylcarbamoyl)-2-vinylcyclo-propyl)pyrrolidine-2-carboxamide] fall in the same range of EC50: 1000 to 10000 nM for the first, 1000 to 10000 nM for the second.

C=C[C@@H]1C[C@]1(NC(=O)[C@@H]1C[C@@H](Oc2cc(-c3ccccc3)nc3cc(OC)ccc23)CN1C(=O)[C@@H](CC(=O)N1CCCCC1)C(C)(C)C)C(=O)NS(=O)(=O)c1ccc(Cl)cc1 [Compound 67, (2S,4R)-1-((S)-2-tert-butyl-4-oxo-4-(piperidin-1-yl)butanoyl)-N-((1R,2S)-1-(4-chlorophenyl-sulfonylcarbamoyl)-2-vinylcyclopropyl)-4-(7-methoxy-2-phenylquinolin-4-yloxy)pyrrolidine-2-carboxamide] and C=C[C@@H]1C[C@]1(NC(=O)[C@@H]1C[C@@H](Oc2cc(-c3ccccc3)nc3cc(OC)ccc23)CN1C(=O)[C@@H](CC(=O)N1CCCCC1)C(C)(C)C)C(=O)NS(=O)(=O)c1ccc(C)cc1 [Compound 69, (2S,4R)-1-((S)-2-tert-butyl-4-oxo-4-(piperidin-1-yl)butanoyl)-4-(7-methoxy-2-phenylquinolin-4-yloxy)-N-((1R,2S)-1-(p-tolylsulfonyl-carbamoyl)-2-vinyl-cyclopropyl)pyr-rolidine-2-carboxamide] cannot be ordered by EC50: under 1000 nM for the first, under 1000 nM for the second.

C=C[C@@H]1C[C@]1(NC(=O)[C@@H]1C[C@@H](Oc2nc(-c3ccccc3)cc3cc(OC)ccc23)CN1C(=O)[C@@H](CC(=O)N1CCCCC1)C(C)(C)C)C(=O)NS(=O)(=O)C1CC1 [Compound 70, (2S,4R)-1-((S)-2-tert-butyl-4-oxo-4-(piperidin-1-yl)butanoyl)-N-((1R,2S)-1-(cyclo-propylsulfonyl-carbamoyl)-2-vinylcyclopropyl)-4-(6-methoxy-3-phenylisoquinolin-1-yloxy)pyrrolidine-2-carboxamide] and C=C[C@@H]1C[C@]1(NC(=O)[C@@H]1C[C@@H](Oc2nc(-c3ccccc3)cc3cc(OC)ccc23)CN1C(=O)[C@@H](CC(=O)N1CCOCC1)C(C)(C)C)C(=O)NS(=O)(=O)C1CC1 [Compound 71, (2S,4R)-1-((S)-2-tert-butyl-4-morpholino-4-oxobutanoyl)-N-((1R,2S)-1-(cyclopropylsulfonyl-carbamoyl)-2-vinylcyclopropyl)-4-(6-methoxy-3-phenylisoquinolin-1-yloxy)pyrrolidine-2-carboxamide] cannot be ordered by EC50: under 1000 nM for the first, under 1000 nM for the second.

First: C=C[C@@H]1C[C@]1(NC(=O)[C@@H]1C[C@@H](Oc2cc(-c3ccccc3)nc3cc(OC)ccc23)CN1C(=O)[C@@H](CC(=O)N1CCCCC1)C(C)(C)C)C(=O)NS(=O)(=O)c1cccs1 [Compound 72, (2S,4R)-1-((S)-2-tert-butyl-4-oxo-4-(piperidin-1-yl)butanoyl)-4-(7-methoxy-2-phenylquinolin-4-yloxy)-N-((1R,2S)-1-(thiophen-2-ylsulfonylcarbamoyl)-2-vinylcyclopropyl)pyr-rolidine-2-carboxamide]
Second: C=C[C@@H]1C[C@]1(NC(=O)[C@@H]1C[C@@H](Oc2cc(-c3ccccc3)nc3cc(OC)ccc23)CN1C(=O)[C@@H](CC(=O)N1CCCCC1)C(C)(C)C)C(=O)NS(=O)(=O)c1cn(C)cn1 [Compound 73, (2S,4R)-1-((S)-2-tert-butyl-4-oxo-4-(piperidin-1-yl)butanoyl)-4-(7-methoxy-2-phenylquinolin-4-yloxy)-N-((1R,2S)-1-(1-methyl-1H-imidazol-4-ylsulfonylcarbamoyl)-2-vinylcycloprop-yl)pyrrolidine-2-carboxamide]
The EC50 of the first is lower: under 1000 nM for the first, 1000 to 10000 nM for the second. The first is the more potent here.

C=C[C@@H]1C[C@]1(NC(=O)[C@@H]1C[C@@H](Oc2cc(-c3ccccc3)nc3cc(OC)ccc23)CN1C(=O)[C@@H](CC(=O)N1CCC2CCCCC2C1)C(C)(C)C)C(=O)NS(=O)(=O)C1CC1 (stereo partly drawn) [Compound 74, (2S,4R)-1-((2S)-2-tert-butyl-4-(octa-hydroisoquinolin-2(1H)-yl)-4-oxobutanoyl)-N-((1R,2S)-1-(cyclo-propylsulfonyl-carbamoyl)-2-vinylcycloprop-yl)-4-(7-methoxy-2-phenylquinolin-4-yloxy)pyrrolidine-2-carboxamide] and C=C[C@@H]1C[C@]1(NC(=O)[C@@H]1C[C@@H](Oc2cc(-c3ccccc3)nc3cc(OC)ccc23)CN1C(=O)[C@@H](CC(=O)N1CCC2(CC1)OCCO2)C(C)(C)C)C(=O)NS(=O)(=O)C1CC1 [Compound 75, (2S,4R)-1-((2S)-2-tert-butyl-4-oxo-4-(1,4-dioxa-8-azaspiro[4.5]decan-8-yl)butanoyl)-N-((1R,2S)-1-(cyclopropylsulfonyl-carbamoyl)-2-vinylcyclopropyl)-4-(7-methoxy-2-phenylquinolin-4-yloxy)pyrrolidine-2-carboxamide] cannot be ordered by EC50: under 1000 nM for the first, under 1000 nM for the second.
